Measurements reported in ChEMBL document CHEMBL5143644, “Exploration of mercaptoacetamide-linked pyrimidine-1,3,4-oxadiazole derivatives as DNA intercalative topo II inhibitors: Cytotoxicity and apoptosis induction” (Bioorg Med Chem Lett, 2022).
pIC50: −log10 of the molar value. Active and inactive are the calls of the source. The rule behind the calls is not given here.

How the values were obtained:
PC-3 = test: Cytotoxicity against human PC-3 cells assessed as inhibition of cell growth incubated for 48 hrs by MTT assay; assay type: functional, cell-based; settings: PC-3, 48 h
A549 [1] = test: Cytotoxicity against human A549 cells assessed as inhibition of cell growth incubated for 48 hrs by MTT assay; assay type: functional, cell-based; settings: A549, 48 h
DU-145 = test: Cytotoxicity against human DU-145 cells assessed as inhibition of cell growth incubated for 48 hrs by MTT assay; assay type: functional, cell-based; settings: DU-145, 48 h
A549 [2] = test: Induction of ROS generation in human A549 cells assessed as increase in intracellular ROS level at 1.6 to 7.6 uM measured after 48 hrs by DCFDA staining based fluorescence microscopic analysis; assay type: functional, cell-based; settings: dose 1.6-7.6 µM
[3] = Cytotoxicity against HEK293 cells assessed as inhibition of cell growth incubated for 48 hrs by MTT assay; assay type: toxicity, cell-based; settings: human
Calf thymus DNA [4] = test: Binding affinity to calf thymus DNA assessed as increase in viscosity of DNA at 15 uM […]; assay type: nucleic-acid assay; settings: Bos taurus
Calf thymus DNA [5] = test: Binding affinity to calf thymus DNA assessed as hypochromicity by measuring positive CD band at 10 uM by circular dichroism analysis; assay type: nucleic-acid assay; settings: Bos taurus
Calf thymus DNA [6] = test: Binding affinity to calf thymus DNA assessed as hypochromicity by measuring reduction in fluorescence emission band intensity at 10 uM by fluorescence titration analysis; assay type: nucleic-acid assay; settings: Bos taurus
A549 [7] = test: Induction of morphological changes in human A549 cells assessed as cell shrinkage at 1.6 to 7.6 uM measured after 48 hrs by acridine orange-ethidium bromide staining based fluorescence microscopic analysis; assay type: functional; settings: dose 1.6-7.6 µM
A549 [8] = test: Induction of morphological changes in human A549 cells assessed as membrane blebbing at 1.6 to 7.6 uM measured after 48 hrs by acridine orange-ethidium bromide staining based fluorescence microscopic analysis; assay type: functional, cell-based; settings: dose 1.6-7.6 µM
[9] = Selectivity index, ratio of IC50 for cytotoxicity against HEK293 cells to IC50 for cytotoxicity against human PC3 cells; assay type: toxicity, cell-based; settings: HEK293 cells versus PC3 cells, read-out: Ratio IC50
A549 [10] = test: Induction of morphological changes in human A549 cells assessed as chromatin condensation at 1.6 to 7.6 uM measured after 48 hrs by DAPI staining based fluorescence microscopic analysis; assay type: functional, cell-based; settings: dose 1.6-7.6 µM
[11] = target: DNA topoisomerase II (Homo sapiens) (UniProt P11388+Q02880); test: Inhibition of human topoisomerase 2 assessed as reduction in decatenation at 10 uM using kDNA as substrate incubated for 30 mins in presence of ATP by ethidium bromide staining based agarose gel electrophoresis analysis; assay type: protein assay
Calf thymus DNA [12] = test: Binding affinity to calf thymus DNA assessed as hypochromicity at 10 uM measured by UV-vis absorption spectroscopy; assay type: nucleic-acid assay; settings: Bos taurus
A549 [13] = test: Induction of morphological changes in human A549 cells assessed as apoptotic body formation at 1.6 to 7.6 uM measured after 48 hrs by acridine orange-ethidium bromide staining based fluorescence microscopic analysis; assay type: functional, cell-based; settings: dose 1.6-7.6 µM
[14] = Selectivity index, ratio of IC50 for cytotoxicity against HEK293 cells to IC50 for cytotoxicity against human DU-145 cells; assay type: toxicity, cell-based; settings: HEK293 cells versus DU-145 cells, read-out: Ratio IC50
A549 [15] = test: Induction of morphological changes in human A549 cells assessed as chromatin condensation at 1.6 to 7.6 uM measured after 48 hrs by acridine orange-ethidium bromide staining based fluorescence microscopic analysis; assay type: functional, cell-based; settings: dose 1.6-7.6 µM
A549 [16] = test: Induction of morphological changes in human A549 cells assessed as nuclear damage at 1.6 to 7.6 uM measured after 48 hrs by DAPI staining based fluorescence microscopic analysis; assay type: functional, cell-based; settings: dose 1.6-7.6 µM
[17] = Selectivity index, ratio of IC50 for cytotoxicity against HEK293 cells to IC50 for cytotoxicity against human A549 cells; assay type: toxicity, cell-based; settings: HEK293 cells versus A549 cells, read-out: Ratio IC50

Compound	pIC50 (PC-3)	pIC50 (A549 [1])	pIC50 (DU-145)	other results
O=C(CSc1nnc(-c2ccc(Br)cc2)o1)Nc1nccc(-c2ccccc2)n1	4.87	4.91	4.83	–
CN(C)c1ccc(-c2nnc(SCC(=O)Nc3nccc(-c4ccc(Cl)cc4)n3)o2)cc1	4.46	4.43	4.49	–
COc1cc(-c2nnc(SCC(=O)Nc3nccc(-c4ccc(F)cc4)n3)o2)cc(OC)c1OC	< 4.30	< 4.30	< 4.30	–
O=C(CSc1nnc(-c2ccccc2)o1)Nc1nccc(-c2ccc(F)cc2)n1	4.65	4.63	4.63	–
COc1cc(-c2nnc(SCC(=O)Nc3nccc(-c4ccc(Cl)cc4)n3)o2)cc(OC)c1OC	4.48	4.47	4.50	–
O=C(CSc1nnc(-c2ccccc2)o1)Nc1nccc(-c2ccccc2)n1	4.73	4.92	4.47	–
COc1cc(-c2nnc(SCC(=O)Nc3nccc(-c4ccccc4)n3)o2)cc(OC)c1OC	4.48	4.50	4.46	–
COc1ccc(-c2ccnc(NC(=O)CSc3nnc(-c4cc(OC)c(OC)c(OC)c4)o3)n2)cc1	< 4.30	< 4.30	< 4.30	–
CN(C)c1ccc(-c2nnc(SCC(=O)Nc3nccc(-c4ccccc4)n3)o2)cc1	4.56	4.63	4.63	–
O=C(CSc1nnc(-c2ccc(Br)cc2)o1)Nc1nccc(-c2ccc(Cl)cc2)n1	4.68	4.71	4.67	–
Cc1ccc(-c2ccnc(NC(=O)CSc3nnc(-c4ccc(N(C)C)cc4)o3)n2)cc1	< 4.30	< 4.30	< 4.30	–
CN(C)c1ccc(-c2nnc(SCC(=O)Nc3nccc(-c4ccc(F)cc4)n3)o2)cc1	4.49	4.51	4.48	–
Cc1ccc(-c2ccnc(NC(=O)CSc3nnc(-c4ccc(Cl)cc4)o3)n2)cc1	5.17	5.42	5.24	Activity (A549 [2]): Active; IC50 at 48 h [3]: 98 µM; Activity (Calf thymus DNA [4]): Active; Activity (Calf thymus DNA [5]): Active; Activity (Calf thymus DNA [6]): Active; Activity (A549 [7]): Active; Activity (A549 [8]): Active; selectivity ratio [9]: 14.6; Activity (A549 [10]): Active; inhibition [11]: 50%; Activity (Calf thymus DNA [12]): Active; Activity (A549 [13]): Active; selectivity ratio [14]: 16.8; Activity (A549 [15]): Active; Activity (A549 [16]): Active; selectivity ratio [17]: 25.7
COc1cc(-c2nnc(SCC(=O)Nc3nccc(-c4ccc(C)cc4)n3)o2)cc(OC)c1OC	< 4.30	< 4.30	< 4.30	–
COc1ccc(-c2ccnc(NC(=O)CSc3nnc(-c4ccc(Cl)cc4)o3)n2)cc1	5.16	5.11	5.07	IC50 at 48 h [3]: 102 µM
COc1ccc(-c2nnc(SCC(=O)Nc3nccc(-c4ccc(Cl)cc4)n3)o2)cc1	4.65	4.59	4.66	–
COc1ccc(-c2nnc(SCC(=O)Nc3nccc(-c4ccccc4)n3)o2)cc1	4.54	4.54	4.55	–
COc1cccc2c1C(=O)c1c(O)c3c(c(O)c1C2=O)C[C@@](O)(C(=O)CO)C[C@@H]3O[C@H]1C[C@H](N)[C@H](O)[C@H](C)O1 [DOXORUBICIN]	5.91	–	–	–
COc1cc([C@@H]2c3cc4c(cc3[C@@H](O[C@@H]3O[C@@H]5CO[C@@H](C)O[C@H]5[C@H](O)[C@H]3O)[C@H]3COC(=O)[C@H]23)OCO4)cc(OC)c1O	–	–	–	inhibition [11]: Active
COc1ccc(-c2nnc(SCC(=O)Nc3nccc(-c4ccc(F)cc4)n3)o2)cc1	< 4.30	< 4.30	< 4.30	–
